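1) Cells in 96-well plates. 2) Compound, 48 h, 5 concentrations. 3) Linear interpolation between surrounding doses. 4) Unreached endpoint = highest concentration. GI50 = concentration required for 50% inhibition of growth.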 Activity calls are given as the source filed them. No stated cut-off is given here; in the data, active = GI50 up to about 1.1 µM and inactive = higher.
Key:
Assay in all cases: NCI tumour cell line growth inhibition, 48 h
[1] = system: 786-0
[2] = system: A549
[3] = system: ACHN
[4] = system: BT-549
[5] = system: EKVX
[6] = system: HL-60
[7] = system: Hs-578T
[8] = system: M14
[9] = system: MOLT-4
[10] = system: NCI/ADR-RES
[11] = system: OVCAR-5
[12] = system: SF-268
[13] = system: SK-MEL-5
[14] = system: SNB-19
[15] = system: SNB-75
[16] = system: SR
[17] = system: UACC-62
[18] = system: U-251
[19] = system: UACC-257

Compound	GI50 [1]	GI50 [2]	GI50 [3]	GI50 [4]	GI50 [5]	GI50 [6]	GI50 [7]	GI50 [8]	GI50 [9]	GI50 [10]	GI50 [11]	GI50 [12]	GI50 [13]	GI50 [14]	GI50 [15]	GI50 [16]	GI50 [17]	GI50 [18]	GI50 [19]
COc1cc(S(=O)(=O)Nc2ccc(-c3csc(/N=C\c4ccccc4O)n3)cc2)ccc1Cl	> 100 µM (inactive)	63.1 µM (inactive)	62.2 µM (inactive)	43.7 µM (inactive)	29.8 µM (inactive)	24.4 µM (inactive)	> 100 µM (inactive)	59 µM (inactive)	15.8 µM (inactive)	> 100 µM (inactive)	> 100 µM (inactive)	42 µM (inactive)	70.5 µM (inactive)	39.3 µM (inactive)	55.2 µM (inactive)	31.6 µM (inactive)	31.6 µM (inactive)	–	–
COc1cc2oc(=O)ccc2cc1CC=C(C)C [SUBEROSIN]	> 10 µM (inactive)	46.8 µM (inactive)	35.2 µM (inactive)	24.4 µM (inactive)	5.81 µM (inactive)	14.7 µM (inactive)	35.4 µM (inactive)	> 10 µM (inactive)	28.8 µM (inactive)	22.9 µM (inactive)	72.6 µM (inactive)	47.8 µM (inactive)	37.3 µM (inactive)	50.6 µM (inactive)	41.1 µM (inactive)	21 µM (inactive)	–	43.3 µM (inactive)	54.3 µM (inactive)
CN(C)S(=O)(=O)c1nc(Cl)c2nc[nH]c2n1	> 100 µM (inactive)	> 100 µM (inactive)	> 100 µM (inactive)	> 100 µM (inactive)	> 100 µM (inactive)	98.6 µM (inactive)	> 100 µM (inactive)	> 100 µM (inactive)	> 100 µM (inactive)	> 100 µM (inactive)	> 100 µM (inactive)	> 100 µM (inactive)	> 100 µM (inactive)	> 100 µM (inactive)	36.9 µM (inactive)	> 100 µM (inactive)	> 100 µM (inactive)	> 100 µM (inactive)	> 100 µM (inactive)
O=P1(C(O)/C=C/c2ccccc2)N(Cc2ccccc2)[C@H](c2ccccc2)[C@@H](c2ccccc2)N1Cc1ccccc1 (some centres undefined)	23.7 µM (inactive)	6.92 µM (inactive)	27.4 µM (inactive)	28.6 µM (inactive)	11.7 µM (inactive)	6.87 µM (inactive)	26.2 µM (inactive)	14.4 µM (inactive)	2.61 µM (inactive)	26 µM (inactive)	21.8 µM (inactive)	23.8 µM (inactive)	14.7 µM (inactive)	24.3 µM (inactive)	19 µM (inactive)	4.75 µM (inactive)	11 µM (inactive)	19.9 µM (inactive)	8.97 µM (inactive)
CCOC(=O)C1(C(=O)OCC)C[C@H]2CON=C2[C@@H]1c1ccc(C(F)(F)F)cc1	46.9 µM (inactive)	75 µM (inactive)	19.1 µM (inactive)	44.7 µM (inactive)	29.5 µM (inactive)	27.7 µM (inactive)	98.6 µM (inactive)	55.1 µM (inactive)	25.9 µM (inactive)	32.6 µM (inactive)	72.6 µM (inactive)	> 100 µM (inactive)	30.6 µM (inactive)	> 100 µM (inactive)	62.5 µM (inactive)	35.4 µM (inactive)	96.2 µM (inactive)	64.7 µM (inactive)	30.8 µM (inactive)
COc1cc(N(CCC#N)CCC#N)ccc1C(=N/NC(=O)c1cc(Br)ccc1O)/N=N/c1ccccc1	29.1 µM (inactive)	25.4 µM (inactive)	28.2 µM (inactive)	20.8 µM (inactive)	21.1 µM (inactive)	13.9 µM (inactive)	61.2 µM (inactive)	29 µM (inactive)	15.9 µM (inactive)	32.5 µM (inactive)	38.1 µM (inactive)	28.5 µM (inactive)	20.1 µM (inactive)	32.1 µM (inactive)	27.7 µM (inactive)	16.9 µM (inactive)	20 µM (inactive)	32.1 µM (inactive)	24.7 µM (inactive)
CCCC(=O)OC1CC(n2cc(F)c(=O)[nH]c2=O)OC1CO (centres undefined)	0.342 µM (active)	0.0538 µM (active)	0.0506 µM (active)	0.726 µM (active)	> 10 µM (inactive)	0.646 µM (active)	> 3.19 µM (inactive)	0.33 µM (active)	> 6.89 µM (inactive)	> 2.55 µM (inactive)	> 10 µM (inactive)	0.0356 µM (active)	0.329 µM (active)	–	1.53 µM (inactive)	0.0493 µM (active)	0.0863 µM (active)	> 5.24 µM (inactive)	> 4.49 µM (inactive)
CC1NOC(NS(=O)(=O)c2ccc(/N=N/c3c(O)c(C(=O)O)cc4ccccc34)cc2)C1C (centres undefined)	> 100 µM (inactive)	> 100 µM (inactive)	> 100 µM (inactive)	> 100 µM (inactive)	> 100 µM (inactive)	> 100 µM (inactive)	> 100 µM (inactive)	> 100 µM (inactive)	> 100 µM (inactive)	> 100 µM (inactive)	> 100 µM (inactive)	> 100 µM (inactive)	> 100 µM (inactive)	59.2 µM (inactive)	> 100 µM (inactive)	> 100 µM (inactive)	> 100 µM (inactive)	> 100 µM (inactive)	> 100 µM (inactive)
COc1ccc(C(c2ccc(OC)cc2)N2C(=O)CCC2C(=O)O)cc1 (centres undefined)	> 100 µM (inactive)	> 100 µM (inactive)	> 100 µM (inactive)	> 100 µM (inactive)	> 100 µM (inactive)	> 100 µM (inactive)	> 100 µM (inactive)	> 100 µM (inactive)	> 100 µM (inactive)	> 100 µM (inactive)	> 100 µM (inactive)	> 100 µM (inactive)	> 100 µM (inactive)	> 100 µM (inactive)	> 100 µM (inactive)	> 100 µM (inactive)	> 100 µM (inactive)	> 100 µM (inactive)	> 100 µM (inactive)
Cc1cc2ccccc2n1CC(=O)NCC(C)C	> 100 µM (inactive)	> 100 µM (inactive)	> 100 µM (inactive)	> 100 µM (inactive)	> 100 µM (inactive)	> 100 µM (inactive)	> 100 µM (inactive)	> 100 µM (inactive)	> 100 µM (inactive)	> 100 µM (inactive)	> 100 µM (inactive)	> 100 µM (inactive)	> 100 µM (inactive)	> 100 µM (inactive)	> 100 µM (inactive)	> 100 µM (inactive)	> 100 µM (inactive)	> 100 µM (inactive)	> 100 µM (inactive)
O=C(O)CCC(=O)c1ccc2sc3ccccc3c2c1	> 100 µM (inactive)	> 100 µM (inactive)	> 100 µM (inactive)	> 100 µM (inactive)	> 100 µM (inactive)	15.8 µM (inactive)	> 100 µM (inactive)	> 100 µM (inactive)	> 100 µM (inactive)	> 100 µM (inactive)	> 100 µM (inactive)	> 100 µM (inactive)	> 100 µM (inactive)	> 100 µM (inactive)	> 100 µM (inactive)	> 100 µM (inactive)	> 100 µM (inactive)	> 100 µM (inactive)	> 100 µM (inactive)
O=C(CSc1nc2ccc(I)cc2c(=O)n1Cc1ccccc1)Nc1ccc(Br)cc1	58.6 µM (inactive)	> 100 µM (inactive)	> 100 µM (inactive)	37.1 µM (inactive)	12.9 µM (inactive)	> 100 µM (inactive)	17.8 µM (inactive)	56.5 µM (inactive)	> 100 µM (inactive)	51.9 µM (inactive)	44.5 µM (inactive)	12.2 µM (inactive)	43.2 µM (inactive)	68.1 µM (inactive)	13.8 µM (inactive)	11.3 µM (inactive)	> 100 µM (inactive)	39 µM (inactive)	–
COCOC1/C=C/CCCCC2=C(C)C=C(C1)O2 (centres undefined)	> 100 µM (inactive)	> 100 µM (inactive)	> 100 µM (inactive)	> 100 µM (inactive)	> 100 µM (inactive)	45.4 µM (inactive)	> 100 µM (inactive)	> 100 µM (inactive)	> 100 µM (inactive)	> 100 µM (inactive)	> 100 µM (inactive)	> 100 µM (inactive)	> 100 µM (inactive)	> 100 µM (inactive)	> 100 µM (inactive)	> 100 µM (inactive)	> 100 µM (inactive)	> 100 µM (inactive)	> 100 µM (inactive)
CC1(C)Oc2ccc(Cl)cc2C12CC2	16.7 µM (inactive)	18.9 µM (inactive)	16.3 µM (inactive)	21.1 µM (inactive)	10.8 µM (inactive)	18.5 µM (inactive)	24.4 µM (inactive)	18.8 µM (inactive)	17.1 µM (inactive)	18.4 µM (inactive)	17.4 µM (inactive)	16.6 µM (inactive)	18 µM (inactive)	16.5 µM (inactive)	16.8 µM (inactive)	18.1 µM (inactive)	40.5 µM (inactive)	15.3 µM (inactive)	15.1 µM (inactive)
COC(=O)CCC(C)[C@H]1CCC2C3C(C[C@H](OC(C)=O)[C@@]21C)[C@@]1(C)CCC2(C[C@H]1C[C@H]3OC(C)=O)OOC1(CCC(C(C)(C)C)CC1)OO2 (some centres undefined)	13.5 µM (inactive)	7.24 µM (inactive)	5.7 µM (inactive)	33.3 µM (inactive)	4.12 µM (inactive)	9.4 µM (inactive)	5.43 µM (inactive)	> 100 µM (inactive)	7.52 µM (inactive)	> 100 µM (inactive)	> 100 µM (inactive)	18.6 µM (inactive)	22.6 µM (inactive)	> 100 µM (inactive)	37.9 µM (inactive)	4.45 µM (inactive)	–	6.73 µM (inactive)	31.8 µM (inactive)
